Data on 24 compounds can be found in ChEMBL document CHEMBL1201862, “PubChem BioAssay data set” (2004).

The source made the active and inactive calls.

In one data set the target is Nonstructural protein 1 (Influenza A virus, UniProt Q194T2). Format: functional, Influenza A virus (A/California/07/2009(H1N1)).
Another data set addresses Cytochrome P450 2C9 (Homo sapiens, UniProt P11712).
Data set [1] addresses T1, Short transient receptor potential channel 4 (Mus musculus, UniProt Q9QUQ5).
T1 sequence (Q9QUQ5 whole entry): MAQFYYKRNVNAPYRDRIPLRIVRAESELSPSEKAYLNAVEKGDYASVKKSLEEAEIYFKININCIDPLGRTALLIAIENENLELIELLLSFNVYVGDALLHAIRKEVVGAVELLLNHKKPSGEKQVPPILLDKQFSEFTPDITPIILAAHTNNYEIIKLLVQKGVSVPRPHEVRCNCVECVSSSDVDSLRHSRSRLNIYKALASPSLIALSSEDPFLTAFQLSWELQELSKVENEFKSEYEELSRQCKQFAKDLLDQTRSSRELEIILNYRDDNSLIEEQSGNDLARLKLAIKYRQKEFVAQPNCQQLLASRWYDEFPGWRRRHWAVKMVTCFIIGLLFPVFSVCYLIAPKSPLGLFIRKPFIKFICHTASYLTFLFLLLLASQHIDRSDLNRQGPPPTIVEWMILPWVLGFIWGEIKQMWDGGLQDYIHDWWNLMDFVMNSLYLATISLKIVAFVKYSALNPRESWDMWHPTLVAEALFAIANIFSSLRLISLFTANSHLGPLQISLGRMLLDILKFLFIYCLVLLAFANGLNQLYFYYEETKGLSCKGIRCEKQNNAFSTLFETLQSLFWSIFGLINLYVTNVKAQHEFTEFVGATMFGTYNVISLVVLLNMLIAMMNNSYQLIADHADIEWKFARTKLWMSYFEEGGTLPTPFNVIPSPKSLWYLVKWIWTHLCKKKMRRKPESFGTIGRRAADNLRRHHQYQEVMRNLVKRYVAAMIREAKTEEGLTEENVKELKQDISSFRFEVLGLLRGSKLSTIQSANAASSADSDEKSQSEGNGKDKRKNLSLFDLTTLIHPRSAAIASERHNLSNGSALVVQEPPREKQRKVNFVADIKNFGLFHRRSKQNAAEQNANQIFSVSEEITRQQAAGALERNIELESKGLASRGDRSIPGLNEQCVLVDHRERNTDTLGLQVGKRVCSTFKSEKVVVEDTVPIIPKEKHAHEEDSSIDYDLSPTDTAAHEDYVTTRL
In words: block of DAMGO-driven TRPC4 calcium entry – cell-based, HEK293 TRPC4/mu-opioid, Fluo-4 calcium, dose response (AID 434942).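 Also: potency of inhibitors blocking the TRPC4 calcium response.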 Format: functional.

For another data set, the target named is Cytochrome P450 2C19 (Homo sapiens, UniProt P33261). In words: Cytochrome panel assay with activity outcomes. Panel member name: p450-cyp2c19 Compounds with AC50 equal or less than 10 uM are considered active. Format: functional. Particulars: read-out: AC50.
For data set [2], the target named is T1, Short transient receptor potential channel 4. In words: calcium entry via TRPC4 opening agents – cell-based, HEK293 TRPC4/mu-opioid, Fluo-4 calcium, dose response (AID 434937). The class given is functional.
Data set [3] can be described thus: Trypanosoma cruzi growth suppression in host cells – NIH3T3 host cells, beta-gal luminescence, confirmation (AID 2044).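 Also: intracellular parasites grown in NIH/3T3 mouse fibroblasts as host cells; luminescent beta-galactosidase reporter signal from transgenic T. cruzi replicating inside host cells; inhibitors lower the luminescence signal.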 Format: functional, cell-based.
A short description of data set [4]: viability of PTEN-deleted HCT116 cells – cell-based, HCT116 PTEN knockout, dose response (AID 1047).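 Also: HCT116 colon tumor cells with PTEN knocked out; cells exposed to compound for 60 hours before readout; potency for loss of cell viability measured by luminescence.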 The class given is functional.
Data set [5] addresses T2, Heat shock factor protein 1 (Mus musculus, UniProt P38532).
T2 sequence (P38532 whole entry): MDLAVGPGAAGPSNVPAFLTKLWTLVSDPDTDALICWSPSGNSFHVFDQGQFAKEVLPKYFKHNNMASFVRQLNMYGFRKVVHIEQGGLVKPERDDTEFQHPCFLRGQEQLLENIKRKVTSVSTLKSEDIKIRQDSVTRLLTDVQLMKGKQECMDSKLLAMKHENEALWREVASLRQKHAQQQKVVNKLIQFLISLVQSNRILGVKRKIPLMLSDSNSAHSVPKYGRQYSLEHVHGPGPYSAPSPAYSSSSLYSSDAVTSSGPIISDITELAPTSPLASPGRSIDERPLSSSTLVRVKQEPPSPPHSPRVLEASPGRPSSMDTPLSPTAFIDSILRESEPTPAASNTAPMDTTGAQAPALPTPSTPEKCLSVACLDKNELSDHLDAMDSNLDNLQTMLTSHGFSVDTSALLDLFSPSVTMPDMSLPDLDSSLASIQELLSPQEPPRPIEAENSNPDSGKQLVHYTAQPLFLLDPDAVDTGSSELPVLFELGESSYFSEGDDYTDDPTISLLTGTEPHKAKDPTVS
Put plainly: enhancement of HSF1-driven luciferase signal – cell-based, NIH3T3, luminescence, dose retest, confirmation (AID 435004).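 Also: stress induced by proteasome inhibitor MG132 added 30 min after compound; luciferase reporter driven by HSF1 response element in NIH3T3 cells; actives raise luminescence as potentiators of the MG132 stress response.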 The class given is functional.

The target of data set [6] is Heat shock protein HSP 90-alpha (Homo sapiens, UniProt P07900). The class given is functional, organism-based.
Data set [7] is described as follows: Luminescence Cell-Based Dose Retest to Confirm Inhibitors of Cancer Stem Cells. [Related pubchem assays (depositor defined):AID2717, AID2721]. Format: functional, Homo sapiens. The following applies: Homo sapiens.
Data set [8] is described as follows: viability of HCT116 lacking mutant beta-catenin – cell-based, human colon tumor, dose response (AID 1045).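 Also: HCT116 colon tumor cells with beta catenin knocked out; cells exposed to compound for 60 hours.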 Format: functional.
Data set [9] in a line: NIH3T3 cell viability loss – ATP luminescence, mouse fibroblasts, counter-screen, dose response (AID 2010).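 Also: cells exposed to compound for about 90 hours before reading.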 Format: functional, cell-based. A general note: Counterscreens check selectivity or assay interference.
Data set [10] concerns the target Voltage-dependent T-type calcium channel subunit alpha-1H (Homo sapiens, UniProt O95180). Format: functional.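 Also: channel activity triggered by adding a high calcium stimulation buffer.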
In data set [11] the target is T3, Calpain-2 catalytic subunit (Sus scrofa, UniProt P43367).
T3 sequence (P43367 whole entry): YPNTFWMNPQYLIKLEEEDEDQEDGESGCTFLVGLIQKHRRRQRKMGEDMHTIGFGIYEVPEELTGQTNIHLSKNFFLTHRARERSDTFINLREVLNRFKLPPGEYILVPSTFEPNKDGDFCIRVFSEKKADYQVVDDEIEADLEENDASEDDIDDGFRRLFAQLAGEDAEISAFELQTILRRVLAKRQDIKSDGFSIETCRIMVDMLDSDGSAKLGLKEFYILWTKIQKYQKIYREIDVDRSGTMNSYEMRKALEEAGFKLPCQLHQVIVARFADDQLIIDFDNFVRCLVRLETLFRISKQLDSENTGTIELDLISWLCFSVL
In words: m-calpain protease blockers, concentration series – biochemical, fluorogenic peptide substrate, dose response (AID 1420). Format: functional.

Data set [12] can be described thus: HEK-293T viability loss after treatment – luminescence, T-cell screen hits, cytotoxicity control for TCR NF-kB inhibitor project, dose response (AID 489026).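 Also: cells exposed to compound about 14 hours before the viability readout.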 Format: functional, cell-based.
The test system of a further data set is Vero. In words: viability of Vero cells under compound – cytotoxicity control for flavivirus capping enzyme inhibitors (AID 588742). Format: functional. Particulars: Chlorocebus sabaeus.
A further data set deals with Genome polyprotein (dengue virus type 2, UniProt P29990). Put plainly: flavivirus cap methylation enzyme inhibition – biochemical, confirmation dose response, primary screen (AID 588689). The class given is functional.
Data set [13] deals with T4, Fatty acid synthase (Homo sapiens, UniProt P49327). Put plainly: inhibition of human FAS-TE enzyme activity – biochemical, endpoint fluorescence intensity, uHTS hits, dose response (AID 624327).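 Also: fluorescence from hydrolysis of an O-methyl fluorescein acyl ester substrate by the enzyme.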 Format: functional.
T4 sequence (P49327 whole entry): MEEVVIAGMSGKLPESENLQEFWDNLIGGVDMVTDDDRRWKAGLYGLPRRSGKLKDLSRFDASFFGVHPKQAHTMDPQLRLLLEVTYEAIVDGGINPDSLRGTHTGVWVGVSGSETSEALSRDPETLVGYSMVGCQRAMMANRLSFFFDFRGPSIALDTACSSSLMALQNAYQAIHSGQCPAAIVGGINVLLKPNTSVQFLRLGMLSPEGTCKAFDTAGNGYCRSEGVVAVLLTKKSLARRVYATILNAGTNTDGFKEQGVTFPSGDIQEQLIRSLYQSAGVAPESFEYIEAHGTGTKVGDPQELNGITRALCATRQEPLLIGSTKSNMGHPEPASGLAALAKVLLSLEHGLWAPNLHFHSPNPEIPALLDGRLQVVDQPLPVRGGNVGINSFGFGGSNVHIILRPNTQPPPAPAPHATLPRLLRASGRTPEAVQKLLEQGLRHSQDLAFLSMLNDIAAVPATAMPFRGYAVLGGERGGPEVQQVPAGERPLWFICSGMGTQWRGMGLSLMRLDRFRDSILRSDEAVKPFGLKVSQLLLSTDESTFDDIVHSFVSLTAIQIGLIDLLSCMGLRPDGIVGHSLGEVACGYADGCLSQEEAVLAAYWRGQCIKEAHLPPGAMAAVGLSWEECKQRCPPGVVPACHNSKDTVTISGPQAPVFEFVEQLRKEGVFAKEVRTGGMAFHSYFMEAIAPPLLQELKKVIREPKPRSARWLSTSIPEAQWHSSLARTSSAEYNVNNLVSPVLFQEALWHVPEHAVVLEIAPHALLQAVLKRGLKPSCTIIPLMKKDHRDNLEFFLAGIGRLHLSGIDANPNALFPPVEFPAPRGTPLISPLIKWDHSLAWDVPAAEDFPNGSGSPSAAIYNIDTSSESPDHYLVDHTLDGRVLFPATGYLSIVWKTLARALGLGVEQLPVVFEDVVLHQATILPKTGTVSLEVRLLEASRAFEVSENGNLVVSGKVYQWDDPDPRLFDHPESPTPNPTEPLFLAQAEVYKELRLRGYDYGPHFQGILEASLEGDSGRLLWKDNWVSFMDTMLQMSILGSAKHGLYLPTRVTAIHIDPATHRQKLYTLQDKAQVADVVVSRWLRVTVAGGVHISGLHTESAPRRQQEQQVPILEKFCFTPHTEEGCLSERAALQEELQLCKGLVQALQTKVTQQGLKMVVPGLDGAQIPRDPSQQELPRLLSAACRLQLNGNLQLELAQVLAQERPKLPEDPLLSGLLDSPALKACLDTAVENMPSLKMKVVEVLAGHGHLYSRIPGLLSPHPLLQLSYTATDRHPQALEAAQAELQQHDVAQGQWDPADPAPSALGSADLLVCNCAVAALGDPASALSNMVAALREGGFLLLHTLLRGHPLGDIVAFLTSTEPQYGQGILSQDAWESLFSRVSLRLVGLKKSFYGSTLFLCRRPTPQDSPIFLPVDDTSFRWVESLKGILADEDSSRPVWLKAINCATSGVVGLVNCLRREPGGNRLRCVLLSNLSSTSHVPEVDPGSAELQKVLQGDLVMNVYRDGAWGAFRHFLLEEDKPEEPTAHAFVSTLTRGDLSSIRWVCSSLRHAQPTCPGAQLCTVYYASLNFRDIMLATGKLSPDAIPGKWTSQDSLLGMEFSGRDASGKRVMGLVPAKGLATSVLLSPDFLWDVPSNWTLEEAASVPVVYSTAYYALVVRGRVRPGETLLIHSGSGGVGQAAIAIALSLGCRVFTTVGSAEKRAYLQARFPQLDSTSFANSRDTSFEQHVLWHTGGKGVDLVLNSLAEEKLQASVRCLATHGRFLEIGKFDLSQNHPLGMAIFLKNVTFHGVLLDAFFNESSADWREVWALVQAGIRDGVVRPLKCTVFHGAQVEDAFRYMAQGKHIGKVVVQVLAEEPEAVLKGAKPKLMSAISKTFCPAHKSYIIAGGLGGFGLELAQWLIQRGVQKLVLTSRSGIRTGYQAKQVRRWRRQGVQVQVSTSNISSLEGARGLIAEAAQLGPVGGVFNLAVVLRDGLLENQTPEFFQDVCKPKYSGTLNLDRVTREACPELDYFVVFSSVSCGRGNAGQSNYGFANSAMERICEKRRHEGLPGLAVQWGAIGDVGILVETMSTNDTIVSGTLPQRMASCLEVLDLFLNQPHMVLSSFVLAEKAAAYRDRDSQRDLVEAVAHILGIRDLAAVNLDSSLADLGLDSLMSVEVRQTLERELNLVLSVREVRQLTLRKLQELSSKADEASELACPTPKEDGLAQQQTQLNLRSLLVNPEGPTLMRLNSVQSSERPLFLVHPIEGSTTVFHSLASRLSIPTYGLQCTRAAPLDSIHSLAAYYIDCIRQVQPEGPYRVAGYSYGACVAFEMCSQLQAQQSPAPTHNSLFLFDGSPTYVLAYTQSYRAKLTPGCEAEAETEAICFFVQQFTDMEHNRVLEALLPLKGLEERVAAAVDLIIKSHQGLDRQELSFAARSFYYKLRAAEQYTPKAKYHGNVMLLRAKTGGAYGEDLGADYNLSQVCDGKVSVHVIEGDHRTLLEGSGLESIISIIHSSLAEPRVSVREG
Data set [14] concerns the target T4, Fatty acid synthase. In words: inhibition of human FAS-TE enzyme activity – biochemical, kinetic fluorescence intensity, dose response (AID 624326).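 Also: rate of fluorescence rise from hydrolysis of a fluorogenic O-methyl fluorescein ester substrate.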 Format: functional.

Sequence of Nonstructural protein 1 (Q194T2 whole entry): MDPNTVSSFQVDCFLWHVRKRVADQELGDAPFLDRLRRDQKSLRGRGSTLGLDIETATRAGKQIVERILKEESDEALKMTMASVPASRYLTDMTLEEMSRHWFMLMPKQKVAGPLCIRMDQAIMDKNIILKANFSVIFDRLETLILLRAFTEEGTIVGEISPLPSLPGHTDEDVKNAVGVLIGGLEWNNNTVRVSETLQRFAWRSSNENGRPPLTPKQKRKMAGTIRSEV
Sequence of Voltage-dependent T-type calcium channel subunit alpha-1H (O95180 whole entry): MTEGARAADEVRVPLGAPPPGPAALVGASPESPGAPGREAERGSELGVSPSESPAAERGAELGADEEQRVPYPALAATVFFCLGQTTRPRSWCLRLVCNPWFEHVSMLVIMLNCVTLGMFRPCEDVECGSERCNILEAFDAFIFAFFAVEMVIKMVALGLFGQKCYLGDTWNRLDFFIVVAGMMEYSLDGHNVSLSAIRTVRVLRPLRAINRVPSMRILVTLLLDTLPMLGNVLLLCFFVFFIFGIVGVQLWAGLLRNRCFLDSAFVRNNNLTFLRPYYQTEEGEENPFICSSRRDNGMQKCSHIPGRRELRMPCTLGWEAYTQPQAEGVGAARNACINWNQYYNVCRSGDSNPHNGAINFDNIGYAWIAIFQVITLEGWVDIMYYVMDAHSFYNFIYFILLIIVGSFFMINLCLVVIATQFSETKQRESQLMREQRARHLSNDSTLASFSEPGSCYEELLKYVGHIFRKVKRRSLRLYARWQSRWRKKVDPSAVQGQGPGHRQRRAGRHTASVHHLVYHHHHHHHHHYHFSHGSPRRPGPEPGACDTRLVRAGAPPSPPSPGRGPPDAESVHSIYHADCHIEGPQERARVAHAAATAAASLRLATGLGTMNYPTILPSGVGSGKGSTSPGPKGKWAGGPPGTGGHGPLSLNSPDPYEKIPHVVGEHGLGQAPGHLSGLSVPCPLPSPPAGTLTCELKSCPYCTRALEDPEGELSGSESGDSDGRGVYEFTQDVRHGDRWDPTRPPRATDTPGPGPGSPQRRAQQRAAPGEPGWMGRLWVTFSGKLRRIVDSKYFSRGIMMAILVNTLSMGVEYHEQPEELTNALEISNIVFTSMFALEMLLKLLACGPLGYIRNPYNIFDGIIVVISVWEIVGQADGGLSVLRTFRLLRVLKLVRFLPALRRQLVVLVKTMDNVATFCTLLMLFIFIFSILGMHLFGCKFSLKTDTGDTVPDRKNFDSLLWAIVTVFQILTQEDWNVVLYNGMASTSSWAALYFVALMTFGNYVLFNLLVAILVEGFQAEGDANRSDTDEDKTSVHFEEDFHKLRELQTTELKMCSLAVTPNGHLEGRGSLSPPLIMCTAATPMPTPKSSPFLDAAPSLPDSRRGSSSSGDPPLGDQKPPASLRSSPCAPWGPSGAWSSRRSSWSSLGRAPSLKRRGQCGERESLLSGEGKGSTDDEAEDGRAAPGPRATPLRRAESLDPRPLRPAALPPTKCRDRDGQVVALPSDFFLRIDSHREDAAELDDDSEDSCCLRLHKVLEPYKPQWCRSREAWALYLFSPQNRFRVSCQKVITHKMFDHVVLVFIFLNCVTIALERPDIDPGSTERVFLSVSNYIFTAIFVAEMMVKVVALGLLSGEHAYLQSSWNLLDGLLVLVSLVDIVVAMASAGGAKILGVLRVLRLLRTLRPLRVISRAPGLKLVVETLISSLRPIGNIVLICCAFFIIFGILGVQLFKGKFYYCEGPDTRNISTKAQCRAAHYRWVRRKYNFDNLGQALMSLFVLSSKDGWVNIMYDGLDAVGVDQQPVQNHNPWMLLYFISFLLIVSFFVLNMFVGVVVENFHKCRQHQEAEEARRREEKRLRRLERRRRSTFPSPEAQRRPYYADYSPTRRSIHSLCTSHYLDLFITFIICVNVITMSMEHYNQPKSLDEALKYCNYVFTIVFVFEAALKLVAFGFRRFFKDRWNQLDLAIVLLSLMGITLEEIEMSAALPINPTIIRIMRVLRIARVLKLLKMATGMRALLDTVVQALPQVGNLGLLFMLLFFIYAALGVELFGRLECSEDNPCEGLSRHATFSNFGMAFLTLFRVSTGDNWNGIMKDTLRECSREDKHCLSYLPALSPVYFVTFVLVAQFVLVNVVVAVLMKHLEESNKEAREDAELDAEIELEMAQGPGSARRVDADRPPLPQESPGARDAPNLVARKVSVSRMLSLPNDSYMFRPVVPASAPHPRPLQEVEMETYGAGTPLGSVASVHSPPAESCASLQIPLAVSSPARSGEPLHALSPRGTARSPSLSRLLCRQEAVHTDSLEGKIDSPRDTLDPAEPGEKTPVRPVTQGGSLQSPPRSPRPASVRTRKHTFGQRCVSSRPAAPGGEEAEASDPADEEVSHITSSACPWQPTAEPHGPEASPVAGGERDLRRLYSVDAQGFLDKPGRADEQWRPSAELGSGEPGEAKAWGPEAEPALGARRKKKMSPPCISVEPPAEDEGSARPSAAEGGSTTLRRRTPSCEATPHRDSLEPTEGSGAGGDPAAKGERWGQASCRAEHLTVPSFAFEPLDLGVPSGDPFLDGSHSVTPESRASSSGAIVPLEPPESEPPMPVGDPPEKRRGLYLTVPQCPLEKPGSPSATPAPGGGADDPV

For the compound `COc1ccc(N2CCN(C(=O)c3cccc(Cn4cc(Cl)cn4)c3)CC2)cc1`, at Nonstructural protein 1, the IC50 (in general, the concentration at which inhibition is half-maximal) is > 100 µM (active).

Consider `Cc1cccn2c(=O)c(/C=N/O)c(N3CCCC3)nc12`, for which the half-maximal activity concentration (AC50) (usually the midpoint of the concentration-response curve, whichever way the signal moves) on Cytochrome P450 2C9 is “inconclusive”; on Cytochrome P450 2C19, 31.6 µM (inconclusive). The EC50 (commonly the concentration at which the effect is half-maximal) in data set [1] was 1.88 µM (active).

With `S=c1sscc1-c1ccccc1`, the IC50 at Nonstructural protein 1 is 32.7 µM (active).

For the compound `O=c1c2c(-c3ccccc3)csc2ncn1/N=C/c1cccc([N+](=O)[O-])c1O`, the values for the EC50 in [1] and in [2] were 10.6 µM (active) and 9.44 µM (active), respectively.

`CCOC(=O)C1(CC2CC2)CCN(Cc2ccc(O)c(Cl)c2)CC1`: the EC50 in [1] was 0.376 µM (active); in [2] it was 0.841 µM (active).

Regarding `Cc1ccc(-c2cc(C(=O)N3N=C(C(F)F)CC3(O)C(F)F)c3ccccc3n2)cc1C` (centres undefined), the EC50 was 2.45 µM (active) in [3]; 38.6 µM (active) in data set [4]; 188 µM (active) in data set [5]; 39.4 µM (active) in [8]; > 30 µM (not active) in [9]. Moreover, the AC50 was 6.22 µM (active) in data set [6] and 4.73 µM (active) in data set [7].

`Cc1ccc(C)c(OCCCC(=O)Nc2nccs2)c1`: in data set [10], the EC50 is 3.06 µM (active). Besides, the IC50 in [11] is > 50 µM (not active).

With `CCCCNC(=Nc1ccc(Cl)cc1)c1cccnc1`, in data set [1], the 50% effective concentration (EC50) is 7.5 µM (active).

As to `CCOC(=O)CC1=NN(c2ccccc2)C(=O)/C1=C\c1ccc(N(C)C)cc1`, the IC50 on Nonstructural protein 1 was 15.7 µM (active).

In the case of `CCOc1ccccc1NS(=O)(=O)c1ccc(-c2cnc(C3CC3)o2)cc1`, in data set [12], the IC50 was > 80 µM (inactive).

Take `OC1(c2ccccc2)C[N+](c2ccccc2)=C2SCCN21` (centres undefined): the EC50 was 1.5 µM (active) in [1] and 1.88 µM (active) in data set [2].

Take `CC(C(=O)N(C)C1CCS(=O)(=O)C1)N1C(=O)/C(=C/c2ccco2)SC1=S` (centres undefined): the CC50 (commonly the concentration that lowers cell viability or growth by half) with Vero is 35.4 µM (active).

On to `Cc1ccc(NS(=O)(=O)c2ccc(N3CCN(c4ccc(O)cc4)CC3)c([N+](=O)[O-])c2)c(C)c1`, for which the AC50 in data set [6] was 4.4 µM (active).

As for `COc1ccc2c(c1)[C@H]1[C@H](CO2)[C@H](c2ccccc2)[C@]2(C)C(=O)Nc3ccc(Cl)cc3C(=O)N12`, the AC50 in data set [6] is 3.14 µM (active).

Regarding `Cc1ccc(S(=O)(=O)N2[C@@H](c3ccc(C(C)(C)C)cc3)C(C(=O)O)=CC[C@H]2c2ccc(Cl)cc2)cc1`, the IC50 at Genome polyprotein was 39.6 µM (active); on Fatty acid synthase [13] it was 10.9 µM (active); on Fatty acid synthase [14], 11.3 µM (active). Also, the CC50 with Vero is > 40 µM (active).

In the case of `COc1ccc(SN=C2C(C)=CC(=O)C=C2C)cc1`, the AC50 in data set [6] was 6.51 µM (active).

Regarding `O=C(Nc1ccn(Cc2ccccc2F)n1)c1ccc(COc2ccc(Cl)cc2Cl)o1`, the EC50 is 10.3 µM (active) in data set [10] and 20.8 µM (active) in data set [5]. In addition, the AC50 in data set [7] is 2.03 µM (active).

For the compound `CCN(C(=O)c1c(-c2ccccc2Cl)noc1C)C1CCCCC1`, the EC50 in data set [1] is 9.44 µM (active).

For the compound `C[C@@]12C(=O)Nc3ccc(F)cc3C(=O)N1[C@H]1c3ccccc3OC[C@@H]1[C@@H]2c1ccccc1`, the AC50 in [6] was 5.82 µM (active).

`O=C(CN1CC(=O)Oc2ccccc21)NCc1ccco1`: at Nonstructural protein 1, the IC50 was 6.58 µM (active).

On to `COc1ccc(C(C)(C)C)cc1NC(=O)Nc1ccc2c(c1)OCO2`, for which the concentration at half-maximal activity (AC50) in [6] is 7.91 µM (active); in data set [7], 6.11 µM (active).

Take `CCCc1nc2oc3c(NCCN(C)C)ncnc3c2c2c1CCCC2`: the EC50 in data set [1] is 1.68 µM (active).

For `Cc1cc(C)cc(Nc2c([N+](=O)[O-])nn(-c3ccc(Cl)cc3)[n+]2[O-])c1`, the IC50 on Nonstructural protein 1 was > 100 µM (active). Moreover, the EC50 was 0.387 µM (active) in data set [3] and > 60 µM (not active) in data set [9].

As for `Cc1cccc(Nc2nc(N)c([N+](=O)[O-])c(N3CCCC(C)C3)n2)c1` (centres undefined), the AC50 in data set [6] was 4.6 µM (active).
